Target: T1, LipB52 (Pseudomonas fluorescens, UniProt Q6GX93)
T1 construct: lipase fused at its N-terminus to the C-terminus of the FLO flocculation domain (Saccharomyces cerevisiae ATCC 60715) as display anchor
T1 sequence (Q6GX93 1-617): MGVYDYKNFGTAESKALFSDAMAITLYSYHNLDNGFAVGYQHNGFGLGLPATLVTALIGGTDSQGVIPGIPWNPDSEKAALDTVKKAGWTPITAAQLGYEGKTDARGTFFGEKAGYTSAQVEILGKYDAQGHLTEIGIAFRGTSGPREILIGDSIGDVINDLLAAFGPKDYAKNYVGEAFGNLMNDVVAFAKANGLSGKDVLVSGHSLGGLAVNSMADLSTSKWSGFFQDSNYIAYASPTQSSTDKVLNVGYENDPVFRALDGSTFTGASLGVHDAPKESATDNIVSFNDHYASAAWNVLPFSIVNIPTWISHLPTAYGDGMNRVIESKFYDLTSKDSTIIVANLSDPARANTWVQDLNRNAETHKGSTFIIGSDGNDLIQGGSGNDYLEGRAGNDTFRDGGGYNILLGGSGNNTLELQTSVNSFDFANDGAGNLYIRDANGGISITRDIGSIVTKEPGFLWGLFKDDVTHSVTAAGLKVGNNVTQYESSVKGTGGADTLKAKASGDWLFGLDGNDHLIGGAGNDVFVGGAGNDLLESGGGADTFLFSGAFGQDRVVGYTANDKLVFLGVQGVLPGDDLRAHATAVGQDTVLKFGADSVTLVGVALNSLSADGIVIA
Assay: p-nitrophenol release by displayed whole cells
Type: cell-based
Settings: yeast surface-displayed (whole-cell) enzyme

Row | Structure (SMILES) | p-nitrophenol release by displayed whole cells (pH 8.0, 40 °C) | p-nitrophenol release by displayed whole cells (conditions not stated for this substrate)
1 | CCCCCCCCCC(=O)Oc1ccc([N+](=O)[O-])cc1 [C10, p-nitrophenol-caprate] | the optimum substrate was p-nitrophenol-caprate (C10) | –
2 | CCCCCCCCCCCC(=O)Oc1ccc([N+](=O)[O-])cc1 [C12, p-nitrophenol ester (C12)] | – | exhibited evident hydrolysis activity towards the p-nitrophenol ester

From publication PMC2267459, “Efficient display of active lipase LipB52 with a Pichia pastoris cell surface display system and comparison with the LipB52 displayed on Saccharomyces cerevisiae cell surface” (BMC Biotechnology, 2008)
